The term IC50 denotes the concentration that gives 50% inhibition.

Converted amounts (≈) assume the structure as drawn. Read-outs that look alike come from different tables or passages of the source.

Consider nine compounds from publication PMC8151848, “Tambjamines and Prodiginines: Biocidal Activity against Trypanosoma cruzi” (Pharmaceutics, 2021).

The test system of one data set is different parasites. The arrangement: method as in PMID 32196500. Particulars: cited from earlier work.
Data set [1] relates to epimastigotes of T. cruzi (CL strain, clone B5). The experiment in a line: Epimastigote susceptibility assay (monotherapy). It counts as cell-based, Trypanosoma cruzi. Particulars: for IC50: Trypanosoma cruzi, CLB strain, 72 h at 28 °C, mean ± SD, read-out: IC50 (µM) in epimastigotes of T. cruzi; for activity against the extracellular and replicative forms of T. cruzi (in words): epimastigotes. As for the experimental part:
The CL-B5 strain was stably transfected with the Escherichia coli β-galactosidase gene (lacZ) and routinely maintained in exponential growth by weekly passages. Trypomastigotes of the CL-B5 strain were obtained as previously reported.
The screening assays were performed in 96-well microplates (WWR Int LLC) containing serially diluted concentrations of each compound and seeded with 2.5 × 10^5 epimastigotes/mL harvested during the exponential growth phase. Growth, medium, and drug blanks were used in each assay as controls. An internal control of the reference drug, benznidazole, was also included. After 72 h at 28 °C, 50 µL of the substrate chlorophenol red-β-D-galactopyranoside (CPRG; Roche) diluted in 0.9% Triton X-100 solution (EMD, Darmstadt, Germany) were added at a final concentration of 200 µM. Then, after 3 h at 37 °C, measurements were performed in a scanning multiwell spectrophotometer (ELISA Multiskan Reader, BioTek Instruments, Inc., Winooski, VT, USA) at 595 nm. Each concentration was tested in triplicate and the experiments were performed three times independently. The efficacy of the compounds was calculated by determining the percentage of epimastigote growth (% EG value) as follows:(1) % Epimastigote growth=(AE−AEB)/(AC−ACB)×100 where AE is the absorbance of the experimental group, AEB the absorbance of the drug blank, AC the absorbance of the control group, and ACB the absorbance of the culture medium blank. The IC50 values (the drug concentration that eliminates 50% of the parasites) were determined for each compound using the GraphPad Prism software (Version 5.0.0 for Windows, GraphPad Software, San Diego, CA, USA).

The nature of data set [2]: Cytotoxicity assay (resazurin) in L-929 fibroblasts. It is filed as cell-based, mouse. Particulars: mouse, L-929 fibroblasts (NCTC clone 929); L-929, 16 µM, n = 9; read-out: % Cytotoxicity ± SD. The text has this: (§1) Mouse L-929 fibroblasts (NCTC clone 929, ECACC 88102702) were used for both drug toxicity and infection assays. Cell line was obtained from Dr. Concepció Soler, Dept. Pathology & Experimental therapeutics, Faculty of Medicine and Health Sciences, University of Barcelona, Spain. Human hepatocarcinoma Hep G2 cells (American Type Culture Collection (ATCC HB-8065)) were employed only in the drug toxicity assays and were obtained from Dr. Neus Agell, Cell Biology Research Group, Faculty of Medicine and Health Sciences, University of Barcelona, Spain.
(§2) Cells were seeded by trypsinization in 96-well microplates (L-929: 4 × 10^3 cells/well; Hep G2: 1.5 × 10^4 cells/well) and incubated for 24 h at 37 °C to allow cell attachment. On the following day, the medium was discarded and replaced with a fresh medium containing the different concentrations of the drugs. Hep G2 cells were treated with concentrations of 100, 10, and 1 µM of the different drugs, while L-929 cells were treated with a wider range of concentrations in order to calculate the IC50 value (the drug concentration that inhibits 50% of cell growth). Medium, growth, and drug blanks were used in each test as controls. Plates were incubated again for another 24 h. After treatment, 20 µL of resazurin diluted in 1X phosphate-buffered saline (PBS; Sigma Aldrich) was added at a final concentration of 70 µM. The plates were incubated for another 24 h, after which fluorescence was measured in a microplate reader (FLUOstar OPTIMA, BMG LABTECH GmbH, Ortenberg, Germany) at an excitation wavelength of 530 nm and an emission wavelength of 590 nm. Each concentration was tested in triplicate and the experiments were repeated three times independently. Results indicated the percentage of toxicity (% T value). (3) % Toxicity=100−(AE−AEB)/(AC−ACB)×100 where AE is the absorbance of the experimental group, AEB the absorbance of the drug blank, AC the absorbance of the untreated cells, and ACB the absorbance of the culture medium blank. For the L-929 fibroblasts, the IC50 values (the drug concentration that inhibits 50% of cell growth) were calculated for each compound using the GraphPad Prism software.

The test system of data set [3] is murine L-929 fibroblasts (NCTC clone 929). Described as above. It counts as cell-based, mouse. Particulars: Mus musculus, L929; read-out: IC50 (µM) L-929 cell growth inhibition.
Description: as §1, §2

The conditions of data set [4]: POPC vesicles, ref 2 (Gianotti et al., Int. J. Mol. Sci., 2020), cited from earlier work.
For another data set, the system named is Plasmodium yoelii. Set-up: method as in PMID 26305125. Particulars: murine model; cited from earlier work.
Data set [5] is described as follows: Transmembrane anion transport (chloride efflux) in POPC vesicles. Particulars: for anionophore activity (in words): chloride efflux. The method, then:
The transmembrane anion transport activity of the compounds was explored in phospholipid (1-palmitoyl-2-oleoyl-sn-glycero-3-phosphocholine (POPC)) vesicles. Chloride efflux from chloride loaded vesicles was monitored using a chloride selective electrode. A solution of the studied compound in DMSO, usually 5 µL to avoid the influence of the organic solvent during the experiments, was added, and once the experiment was finished, a surfactant (Triton-X, 10% dispersion in water, 20 µL) was used to lyse the vesicles and release all the encapsulated chloride. This value was taken as 100% release and used as such. The experiments were repeated using different concentrations of the studied compounds and normalized chloride efflux at […] against the concentration of compound plotted. The data were then fitted with the Hill equation and an EC50 parameter, representing the concentration of compound eliciting 50% of chloride release was calculated. Assays in which the external medium was nitrate or bicarbonate were performed.

For data set [6], the system named is epimastigotes of T. cruzi (CL strain, clone B5). Set-up: method as in PMID 31210760. Particulars: read-out: IC50 against epimastigotes of T. cruzi (earlier study); cited from earlier work.
The test system of a further data set is Pseudomonas aeruginosa. Particulars: cited from earlier work.
The next data set concerns Enterococcus faecalis. Particulars: cited from earlier work.
The next data set deals with Escherichia coli. As to conditions: cited from earlier work.
Where [7] appears, read: external bicarbonate, read-out: EC50 (µM) HCO3–/Cl–.
The mark [8] stands for this setting: external nitrate, read-out: EC50 (µM) NO3–/Cl–.

For the compound `Cc1nn(C)c(COc2ccc(N3CCN(S(=O)(=O)N(C)C)CC3)cc2)c1-c1cccc2c(CCCOc3cccc4ccccc34)c(C(=O)O)n(CCN3CCOCC3)c12` [Compound A-1210477], in the data set on different parasites, the “effect on the viability of different parasites (in words)” value was “do not have an effect”.
As to `Cc1c(-c2ccc(N3CCc4cccc(C(=O)Nc5nc6ccccc6s5)c4C3)nc2C(=O)O)cnn1CC12CC3CC(CC(C3)C1)C2` [Compound A-1331852], the “effect on the viability of different parasites (in words)” value in the data set with different parasites was “do not have an effect”.
Consider `Cc1c(-c2c(-c3ccc(F)o3)sc3ncnc(O[C@H](Cc4ccccc4OCc4ccnn4CC(F)(F)F)C(=O)O)c23)ccc(OCCN2CCN(C)CC2)c1Cl` [Compound S63845], for which the “effect on the viability of different parasites (in words)” value in the data set with different parasites is reported as “do not have an effect”.
Regarding `CCCCn1cc(-c2cc(OC)c(/C=C3\N=C(C)C=C3C)[nH]2)nn1` [EH123], the “Selectivity index (SI), Epimastigotes” value in data set [1] (IC50 for L-929 fibroblasts / IC50 for T. cruzi epimastigotes) turned out to be 0.86. Also, the IC50 in data set [1] was 199 ± 49.9 µM; in data set [3], 171.7 ± 0.5 µM. Besides, the “activity against the extracellular and replicative forms of T. cruzi (in words)” value in data set [1] is “did not show detectable levels of trypanocidal activity”. The cytotoxicity at 24 h, 16 µM in [2] was determined as 3.72 ± 1.14%. Moreover, the figures for the EC50 in data set [4] (setting [7]) and in data set [4] (setting [8]) were 1.91 µM and 0.024 µM, respectively.
In the case of `CCc1c(-c2ccc[nH]2)[nH]c(C=NC2CCCCCC2)c1C` [KAR425], the “in vivo activity against P. yoelii infection (in words)” value in the data set with Plasmodium yoelii is on record as “potent in vivo activity”.
As to `CC/N=C/c1[nH]c(-c2ccc[nH]2)c(CC)c1C` [MM5], in data set [1], the IC50 worked out at 130 ± 34.7 µM; the “activity against the extracellular and replicative forms of T. cruzi (in words)” value is given as “did not show detectable levels of trypanocidal activity”. For the same compound, the “anionophore activity (in words)” value in data set [5] is “very limited activity”. Also, the “EC50 (µM) HCO3–/Cl–” value in data set [5] (external bicarbonate) is “not active enough to calculate EC50 value”. Also, the “EC50 (µM) NO3–/Cl–” value in [5] (external nitrate) is reported as “not active enough to calculate EC50 value”.
As to `CCCCCC1=C/C(=C/c2[nH]c(-c3ccc[nH]3)cc2OC)N=C1C` [Prodigiosin, prodigiosin], the “anionophore activity (in words)” value in data set [5] was “most active anionophore”. The values for the EC50 in data set [5] (setting [7]) and in data set [5] (setting [8]) were 0.06 µM and 0.002 µM, respectively. In addition, in [6], the IC50 was at most 800 nM. Further, the “minimal inhibitory concentration (MIC)” value is recorded as 8 µM (≈ 2.59 µg/mL) in the data set with Pseudomonas aeruginosa, 2 µM (≈ 0.647 µg/mL) in the data set with Enterococcus faecalis and 2 µM (≈ 0.647 µg/mL) with Escherichia coli.
Regarding `CC1(C)CCC(c2ccc(Cl)cc2)=C(CN2CCN(c3ccc(C(=O)NS(=O)(=O)c4ccc(N[C@H](CCN5CCOCC5)CSc5ccccc5)c(S(=O)(=O)C(F)(F)F)c4)cc3)CC2)C1` [navitoclax], in the data set with different parasites, the “effect on the viability of different parasites (in words)” value is “do not have an effect”.
As for `CC1(C)CCC(CN2CCN(c3ccc(C(=O)NS(=O)(=O)c4ccc(NCC5CCOCC5)c([N+](=O)[O-])c4)c(Oc4cnc5[nH]ccc5c4)c3)CC2)=C(c2ccc(Cl)cc2)C1` [venetoclax], the “effect on the viability of different parasites (in words)” value in the data set with different parasites was “do not have an effect”.
